Assay results as given in a melting point compilation (Tetko et al.; mined from patent text by program, amines drawn as free bases though some values may be those of a salt).

Structure (SMILES) | melting point
Cc1ccnc2c1C(=O)CC(c1cc(F)ccc1F)C2 (stereo not drawn) | 75 to 76 °C
CCOC(=O)c1c(NC2CCCCC2)c(C#N)c(=O)n2ccccc12 | 140 to 141 °C
CC(=O)Sc1cc(-c2ccc(C(F)(F)F)n(C)c2=O)c(F)cc1Cl | 91 to 92 °C
CC(=O)OC1CCC2(C)C(=CCC3C2CCC2(C)C(c4cccnc4)=CCC32)C1 (stereo not drawn) | 144 to 145 °C
CCC[C@H]1CC[C@H](c2ccc(OCC)c(C#N)c2)CC1 | 32 °C
Cn1c(-c2ccc(-c3ccccc3)cc2)cnc1[C@H](Cc1ccccn1)N(C=O)c1cc2cc(Br)ccc2o1 | 180 to 182 °C
CCCc1nn(-c2ccc(C(F)(F)F)cn2)cc1CCCOc1ccccc1CCC(=O)O | 87 to 88 °C
O=C1Nc2ccccc2S(=O)(=O)c2cc(C(F)(F)F)ccc21 | 240 to 241 °C
Cc1cc(Br)cc2c(C(C)C)c[nH]c12 | 170 °C
Cc1cc(Br)ccc1C(=O)NCc1ccccn1 | 86 to 87.5 °C
CCOC(=O)C(Cl)N=Nc1ccccc1C(=O)c1ccccn1 (stereo not drawn) | 123 to 125 °C
S=c1[nH]c2cc(Cl)cc(OCCNCc3ccccc3)c2[nH]1 | > 250 °C
CCOC(=O)c1c(N2CCN(C(=O)c3cccs3)CC2)c2cc(F)cnc2[nH]c1=O | 124 to 133 °C
CCOc1nc2ncnn2c2c1cnc1c2cnn1CC | 196 to 197 °C
CCOCCc1ccc(OCCNc2nc(C)nc(C)c2Cl)c(C)c1 | 61 to 63 °C
CC(=O)Nc1nc(CCc2ccc(NC(=N)N)cc2)c(Cc2cccc(S(C)(=O)=O)c2)s1 | 212 to 214 °C
COC(=O)c1[nH]c2ccccc2c1Oc1ccccc1[N+](=O)[O-] | 201 to 202 °C
COC(=O)CCC(=O)c1ccc(CCCCCCNC(C)=O)cc1 | 87 to 89 °C
CC(C)(C)c1cc(C(=O)COc2ccc(C(=O)OCc3ccccc3)c(O)c2)cc(C(C)(C)C)c1O | 123 to 124 °C
CN(C)C=NC1CCN(Cc2ccccc2)CC1 | 61 to 65 °C
CN(CCCNC1=CC(=O)c2sc(C(=O)N3CCOCC3)nc2C1=O)CCCNC1=CC(=O)c2sc(C(=O)N3CCOCC3)nc2C1=O | 207 to 208 °C

Structure (SMILES) | melting point
COc1ccc(Cn2nnc(C3=C(O)c4ccccc4S(=O)(=O)N3C)n2)cc1 | 178 to 181 °C
COC(C)(CCCCC(C)(C)O)c1cccc(C=Cc2cc(O)cc(O)c2)c1 (stereo not drawn) | 65 to 75 °C
Cc1cc(C)c(Nc2nc(Nc3ccc(C#N)cc3)ncc2N)c(C)c1 | 224 to 225 °C
COCC(=O)Nc1cc2c(cc1Br)CCC2 | 84 to 86 °C
CC(=O)Oc1cc(C)c(C)c(C)c1C1(OC(C)=O)C(=O)c2ccccc2C1=O | 238 to 242 °C
CCNc1nc2ccc(CCc3ccc(CN(C)C)o3)cc2o1 | 72 to 73 °C
CCC(C)N(C(=O)c1cc(-c2ccccc2Cl)nc2ccccc12)C(C)CC (stereo not drawn) | 120 °C
COC(=O)[C@@H]1[C@@H](O)CCN1C(=O)Nc1ccc(C#N)c(Cl)c1C | 189 to 191 °C
CC(C)c1cccc(C(C)C)c1NC(=O)CN1CCN(CCSc2nc3ccccc3s2)CC1 | 170 to 171 °C
CC(=Cc1ccccc1)c1ccc2c(c1)SC(C)(C)S2 | 57 to 58 °C
N#CC(Cc1ccccn1)(C(N)=O)c1ccc([N+](=O)[O-])cc1 (stereo not drawn) | 79 to 81 °C
CC(C)n1nc(-c2nc(C(N)=O)c(N)nc2-c2ccccc2Br)ccc1=O | 132 to 135 °C
CCOc1cc(N)c(Cl)cc1C(=O)NCC1CN(CC2CCN(Cc3cccc(F)c3)CC2)CCO1 (stereo not drawn) | 172 to 174 °C
O=C(c1cnccn1)N1CCN(Cc2ccc3c(c2)Cc2c(-c4ccsc4)n[nH]c2-3)CC1 | 202 to 204 °C
C=C(C)c1csc(SC)c1 | 71 to 73 °C
CC(C)(C)c1ccccc1N1CCN(C(=O)C(=O)Nc2ccccn2)CC1 | 168 to 172 °C
Cc1c(C#N)c(=O)oc2c(C)c(O)c(CC(Br)CBr)cc12 (stereo not drawn) | 175 to 176 °C
CCCCC(Oc1c(Br)cc(-c2ccc(-c3c(Cc4ccccc4)oc4ccccc34)cc2)cc1Br)C(=O)O (stereo not drawn) | 75 to 76 °C
O=C(Nc1ccc(C(=O)N2Cc3ccccc3Cc3ccccc32)cc1)c1ccccc1 | 219 to 221 °C
CONC(=O)c1nsc2ccc(-n3c(=O)cc(C(F)(F)F)n(C)c3=O)cc12 | 125 to 127 °C
C[C@@H]1C(=O)C[C@H]2C[C@@H]1OO[C@@]2(C)/C=C\c1ccc(F)cc1 | 84 °C

The next lines start with the values.

melting point | Structure (SMILES)
218 to 220 °C | NC(=O)c1ccc(-c2ccc(-c3ccn(C(CC(=O)O)C(=O)NC(CO)Cc4ccccc4)c3)cc2)cc1 (stereo not drawn)
136 to 147 °C | CC(C)C[C@H](NC(=O)C1(N)CCCCC1)C(=O)NCC(N)=O
110 °C | CCc1nnc(C(Cc2ccc(OCCc3nc(-c4ccccc4)oc3C)cc2)c2ccccc2)o1 (stereo not drawn)
96 to 98 °C | COc1ccc(-c2cc(=Nc3c(C)cc(C)cc3C)n(C)c(N(C)Cc3ccccc3)n2)cc1OC
132 °C | COc1ccc(Cl)cc1C(=O)Nc1ccc(C(F)(F)F)cc1
154 to 155 °C | CCOC(=O)c1cn(CCCl)c2nc(N3CCN(C)CC3)ncc2c1=O
190 to 192 °C | O=C(O)c1ccccc1C(=O)c1ccc(N2CCCC2)cc1O
97 to 98 °C | CSc1ccc(NC(=O)C2(C)CC2)cc1C(F)(F)F
146 to 148 °C | CCc1nc2c(N)nc3c(c2n1CCOCCS(C)(=O)=O)CCCC3
194 °C | COc1ccc(Cl)c(Oc2c(C=O)nc(N3CCOCC3)nc2NS(=O)(=O)c2ccc(C(C)C)cn2)c1
172 to 173 °C | COCCc1nc2c(N)nc3c(c2n1CCCNC(=O)N1CCOCC1)CCCC3
122 to 129 °C | COCCOc1cc(NC(=O)OC(C)(C)C)c(NC(=O)CC(=O)c2cccc(-n3ccnc3)c2)cc1C#Cc1ccccc1
254 °C | CCOc1cc(-c2cc(C(F)F)n3ncc(C(=O)Nc4cccc(S(N)(=O)=O)c4)c3n2)ccc1C(F)(F)F
193 to 195 °C | CC1(C)CN(CC2Cc3nccnc3C2)c2nc(-c3ccncn3)cc(=O)n2C1
161 °C | Cc1ccc(CN2CCN(C3=NC4(C=CC(=O)C(Cl)=C4)C(c4ccccc4)=C3)CC2)cc1 (stereo not drawn)
89 °C | O=C(CCCCCN1CCN(c2cccc(OC(F)(F)F)c2)CC1)N1Cc2ccccc2C1
111 to 113 °C | CCOC(=O)C[C@@H]1C(=O)N(S(=O)(=O)c2ccc(OC)cc2)C=C[C@@H]1c1ccccc1
80 °C | CSc1cc(C(F)(F)F)ccc1C#N
186 to 187 °C | CC(O)(Cc1ccccc1)CN1CCC2(CC1)CSC1=C(O2)c2ccccc2C(=O)C1=O (stereo not drawn)
81 to 83 °C | CCOC(=O)C(Cc1ccc(OCc2ccccc2)cc1)OS(C)(=O)=O (stereo not drawn)
87 to 88 °C | CCOC(=O)[C@H](Cc1ccc(O)cc1)NC(=O)OC(C)(C)C
102 to 103 °C | O=C1c2ccccc2C(=O)N1CCCCN1CCC(=C(c2ccccc2)c2ccccc2)CC1
189 to 190 °C | NS(=O)(=O)c1cc(C(=O)NNc2ccccc2)ccc1Cl
139 to 140 °C | CCCCOc1c(CNC(=O)OC(C)(C)C)n(CC2CC2)c(=O)c2ccc(C(=O)OC)cc12
67 to 69 °C | CCOC(=O)c1cc(F)c(SC)nc1NC1CC1
189 to 191 °C | O=C(O)c1ccc(C(c2ccccc2)c2ccccc2)cn1
